Where “and” joins values, the source holds several entries; their conditions need not be identical. Identical values can stand only once.
Experiments:
in vivo = test: in vivo
Protocol: Here, serial doses of lobeline were administered to male and female rats intravenously, subcutaneously or orally, and the pharmacokinetic profiles of the parent lobeline and its epimer were monitored in plasma.

[1] = Pharmacokinetics of lobeline and epimer in human subjects after sublingual lobeline administration (7.5, 15, 30 mg); conditions: for CL/F (extravascular clearance): epimer
Text: The pharmacokinetics of lobeline and lobeline epimer were examined in eight human subjects (Sub) after sublingual lobeline administration.

clinical = conditions: human, in vivo
Protocol: Three consecutive doses of lobeline (either 30, 45 and 45 mg in the first study group, or 60, 60 and 60 mg in the second group) were administered to human volunteers at 0800, 1200 and 1600 over two full inpatient days. The pharmacokinetics of lobeline and epimer were then assessed in each subject. […] A crude index of accumulation (non-steady state) was obtained by dividing the sixth dose trough concentration by that observed for the fifth dose.

[2] = female, rat, in vivo, iv, 2 mg/kg
[3] = female, rat, in vivo, po, 20 mg/kg
[4] = female, rat, in vivo, sc, 3 mg/kg
[5] = male, rat, in vivo, iv, 2 mg/kg
[6] = male, rat, in vivo, po, 20 mg/kg
[7] = male, rat, in vivo, sc, 3 mg/kg
[8] = epimer in plasma, individual human subjects, sublingual lobeline 7.50 mg
[9] = epimer in plasma, individual human subjects, sublingual lobeline 15.0 mg
[10] = epimer in plasma, individual human subjects, sublingual lobeline 30.0 mg
[11] = individual human subjects, sublingual lobeline 7.50 mg
[12] = individual human subjects, sublingual lobeline 15.0 mg
[13] = individual human subjects, sublingual lobeline 30.0 mg

CN1[C@H](CC(=O)c2ccccc2)CCC[C@H]1C[C@H](O)c1ccccc1 (single isomer, unassigned; epimer 2) [Epimer, 2-[6S-(2S-hydroxy-2-phenyl-ethyl)-1-methyl-piperidin-2S-yl]-1-phenyl-ethanone]
clearance (in vivo; [2]): 0.433 mL/min/kg | half-life (in vivo; [2]): 1.47 h | AUC(0-inf) (in vivo; [3]): 40.9 ng·h/mL | AUC(0-t) (in vivo; [3]): 39.3 ng·h/mL | Cmax (in vivo; [3]): 23.8 ng/mL | MRT last (in vivo; [3]): 2.16 h | Tmax (in vivo; [3]): 0.5 h | half-life (in vivo; [3]): 1.71 h | AUC(0-inf) (in vivo; [4]): 128 ng·h/mL | AUC(0-t) (in vivo; [4]): 127 ng·h/mL | Cmax (in vivo; [4]): 85 ng/mL | MRT last (in vivo; [4]): 1.5 h | Tmax (in vivo; [4]): 0.5 h | half-life (in vivo; [4]): 1.11 h | AUC(0-inf) (in vivo; [5]): 69.7 ng·h/mL | AUC(0-t) (in vivo; [5]): 68.7 ng·h/mL | Cmax (in vivo; [5]): 47.6 ng/mL | MRT last (in vivo; [5]): 1.51 h | Tmax (in vivo; [5]): 0.25 h | Vd (in vivo; [5]): 46.3 L/kg | clearance (in vivo; [5]): 0.48 mL/min/kg | half-life (in vivo; [5]): 1.26 h | AUC(0-inf) (in vivo; [6]): 54.8 ng·h/mL | AUC(0-t) (in vivo; [6]): 54 ng·h/mL | Cmax (in vivo; [6]): 49.8 ng/mL | MRT last (in vivo; [6]): 1.73 h | Tmax (in vivo; [6]): 0.5 h | half-life (in vivo; [6]): 1.32 h | AUC(0-inf) (in vivo; [7]): 109 ng·h/mL | AUC(0-t) (in vivo; [7]): 108 ng·h/mL | Cmax (in vivo; [7]): 54.4 ng/mL | MRT last (in vivo; [7]): 1.45 h | Tmax (in vivo; [7]): 0.5 h | half-life (in vivo; [7]): 1.11 h | time after lobeline administration within which significant epimer concentrations were achieved in plasma (in vivo; rats, irrespective of dose or route): 15 to 30 min | dose linearity of Cmax and CL/F ([1]; dose range from 7.5 to 30 mg, sublingual, human): Linear kinetics | AUC(0-∞) [1, 8]: 11.92 ng·h/mL | AUCext (percent of AUC(0-∞) determined by extrapolation) [1, 8]: 40.22% and 37.47% and 21.02% and 13.37% and 29.10% and 11.02% and 21.05% and 22.14% | Tlast (time of last measurable plasma concentration) [1, 8]: 2.00 hr and 3.00 hr (4×) and 6.00 hr and 12.00 hr and 4.00 hr | λz (terminal exponential rate constant) [1, 8]: 0.6868 h⁻¹ and 0.3858 h⁻¹ and 0.6119 h⁻¹ and 0.3882 h⁻¹ and 0.531 h⁻¹ and 0.2004 h⁻¹ and 0.6101 h⁻¹ and 0.489 h⁻¹ | AUC(0-∞) [1, 9]: 24.30 ng·h/mL | AUCext (percent of AUC(0-∞) determined by extrapolation) [1, 9]: 10.70% and 12.80% and 22.39% and 5.75% and 10.95% and 14.68% and 8.64% and 8.10% | Tlast (time of last measurable plasma concentration) [1, 9]: 4.17 hr and 4.00 hr (3×) and 8.00 hr and 11.00 hr and 4.03 hr and 6.00 hr | λz (terminal exponential rate constant) [1, 9]: 0.6055 h⁻¹ and 0.6196 h⁻¹ and 0.4338 h⁻¹ and 0.3591 h⁻¹ and 0.684 h⁻¹ and 0.1908 h⁻¹ and 0.7266 h⁻¹ and 0.5175 h⁻¹ | AUC(0-t) [1, 10]: 83.89 ng·h/mL and 20.12 ng·h/mL and 87.17 ng·h/mL | AUCext (percent of AUC(0-∞) determined by extrapolation) [1, 10]: 3.89% and 10.44% and 5.56% and 15.37% and 11.12% and 3.26% and 7.85% and 5.01% | Tlast (time of last measurable plasma concentration) [1, 10]: 6.00 hr (2×) and 4.00 hr (3×) and 8.00 hr (2×) and 22.75 hr | λz (terminal exponential rate constant) [1, 10]: 0.6184 h⁻¹ and 0.6931 h⁻¹ and 0.5281 h⁻¹ and 0.25 h⁻¹ and 0.7194 h⁻¹ and 0.1513 h⁻¹ and 0.8194 h⁻¹ and 0.3741 h⁻¹ | CL/F (extravascular clearance) [1, 11]: 282.7 mL/min/kg and 110.1 mL/min/kg and 240.7 mL/min/kg and 70.7 mL/min/kg and 159.2 mL/min/kg and 17.4 mL/min/kg and 225.5 mL/min/kg and 144.2 mL/min/kg | CL/F (extravascular clearance) [1, 12]: 188.2 mL/min/kg and 120.8 mL/min/kg and 161.7 mL/min/kg and 56.2 mL/min/kg and 175.6 mL/min/kg and 14.5 mL/min/kg and 180.2 mL/min/kg and 97.3 mL/min/kg | CL/F (extravascular clearance) [1, 13]: 153.7 mL/min/kg and 184.5 mL/min/kg and 146.9 mL/min/kg and 55.5 mL/min/kg and 285.9 mL/min/kg and 13.7 mL/min/kg and 259.4 mL/min/kg and 74.9 mL/min/kg | ratio of the cumulative amount of urinary epimer to lobeline ([1]; human subjects, sublingual lobeline): approximately 0.5 | Combined urinary excretion of lobeline and epimer ([1]; human, in vivo): ≤ 0.5% | AUC(0-inf) ([1]; human, in vivo, 7.5 mg, epimer in plasma, individual human subjects, sublingual lobeline 7.50 mg): 13.2 ng·h/mL | AUC(0-inf) ([1]; human, in vivo, 15 mg, epimer in plasma, individual human subjects, sublingual lobeline 15.0 mg): 17.3 ng·h/mL | AUC(0-inf) ([1]; human, in vivo, 30 mg, epimer in plasma, individual human subjects, sublingual lobeline 30.0 mg): 91.8 ng·h/mL | half-life ([1]; human, in vivo, 30 mg, Terminal exponential phase half-life (T1/2), average): ~1.7 h | half-life ([1]; human, in vivo, 30 mg, Terminal exponential phase half-lives (T1/2 values), range): 1 to 5 h | Tmax ([1]; human, in vivo, 30 mg, Tmax values, range): 0.25 to 3 h | Tmax ([1]; human, in vivo, 30 mg, Tmax, average): 1.3 h | half-life ([1]; human, in vivo, mean T1/2 values, human subjects, sublingual lobeline): ~2 h | ratio of epimer to lobeline in plasma (Cmax and area under the curve; x to 1) ([1]; humans receiving sublingual lobeline 7.5, 15 and 30 mg): 8-10 and 8 to 10 | AUC(0-∞) Ratio (Epi/Lob) [1, 11]: 8.23 and 7.66 and 4.64 and 8.82 and 4.97 and 10.29 and 6.66 and 7.29 | AUC(0-∞) Ratio (Epi/Lob) [1, 12]: 10.60 and 7.17 and 8.44 and 9.79 and 6.74 and 12.94 and 6.63 and 10.97 | AUC(0-∞) Ratio (Epi/Lob) [1, 13]: 11.77 and 6.33 and 8.63 and 10.30 and 6.07 and 11.84 and 9.02 and 11.44 | half-life (clinical): 3.47 h | time at which geometric mean plasma concentration peaked (clinical): 1.38 h
